The test system of this experiment is L1210 leukemia ip in BDF1 mice, survival T/C. The experiment can be described thus: NCI In Vivo Anticancer Drug Screen. Data for tumor model L1210 Leukemia (intraperitoneal) in B6D2F1 (BDF1) mice. The settings on record: endpoint: mean survival time, higher = longer survival. Summed up:
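Transplanted-tumor mice were given test agent; controls received vehicle only. Survival readings from the two groups were divided (treated over control).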

[1] abbreviates: dose: 100.0 mg/kg/injection, schedule: Q04DX003 (ip), vehicle: saline with Tween-80.
The mark [2] stands for this setting: dose: 200.0 mg/kg/injection, schedule: Q04DX003 (ip), vehicle: saline with Tween-80.
[3] abbreviates: dose: 400.0 mg/kg/injection, schedule: Q04DX003 (ip), vehicle: saline with Tween-80.
Setting [4] is: dose: 100.0 mg/kg/injection, schedule: Q01DX001 (ip), vehicle: saline.
[5] abbreviates: dose: 400.0 mg/kg/injection, schedule: Q01DX001 (ip), vehicle: saline.
Where [6] appears, read: dose: 100.0 mg/kg/injection, schedule: Q04DX003 (ip), vehicle: saline.
[7] abbreviates: dose: 200.0 mg/kg/injection, schedule: Q04DX003 (ip), vehicle: saline.
[8] abbreviates: dose: 400.0 mg/kg/injection, schedule: Q04DX003 (ip), vehicle: saline.
Where [9] appears, read: dose: 50.0 mg/kg/injection, schedule: Q01DX009 (ip), vehicle: saline with Tween-80.
The mark [10] stands for this setting: dose: 100.0 mg/kg/injection, schedule: Q01DX009 (ip), vehicle: saline with Tween-80.
Setting [11] is: dose: 200.0 mg/kg/injection, schedule: Q01DX009 (ip), vehicle: saline with Tween-80.
[12] abbreviates: dose: 100.0 mg/kg/injection, schedule: Q01DX009 (ip), vehicle: saline.
Setting [13] is: dose: 200.0 mg/kg/injection, schedule: Q01DX009 (ip), vehicle: saline.
Setting [14] is: dose: 100.0 mg/kg/injection, schedule: Q04DX003 (ip), vehicle: Klucel (hydroxypropylcellulose) (HPC).
Setting [15] is: dose: 200.0 mg/kg/injection, schedule: Q04DX003 (ip), vehicle: Klucel (hydroxypropylcellulose) (HPC).
[16] abbreviates: dose: 400.0 mg/kg/injection, schedule: Q04DX003 (ip), vehicle: Klucel (hydroxypropylcellulose) (HPC).
Where [17] appears, read: dose: 100.0 mg/kg/injection, schedule: Q01DX009 (ip), vehicle: Klucel (hydroxypropylcellulose) (HPC).
The mark [18] stands for this setting: dose: 200.0 mg/kg/injection, schedule: Q01DX009 (ip), vehicle: Klucel (hydroxypropylcellulose) (HPC).
The mark [19] stands for this setting: dose: 400.0 mg/kg/injection, schedule: Q01DX009 (ip), vehicle: Klucel (hydroxypropylcellulose) (HPC).

Structures are written as SMILES. Toxic doses and inconclusive results are not listed.

Turning to `O=C(Nc1ccc(O)cc1)c1ccc(C(=O)Nc2ccc(O)cc2)cc1`, the T/C is, setting by setting: (dose: 15.0 mg/kg/injection, schedule: Q01DX Z (ip), vehicle: methylcellulose (MC)) 112 % of control; (dose: 30.0 mg/kg/injection, schedule: Q01DX Z (ip), vehicle: methylcellulose (MC)) 93 % of control; (dose: 60.0 mg/kg/injection, schedule: Q01DX Z (ip), vehicle: methylcellulose (MC)) 98 % of control; (dose: 120.0 mg/kg/injection, schedule: Q01DX Z (ip), vehicle: methylcellulose (MC)) 98 % of control.
As to `CC(C)OCCCNC(=O)NS(=O)(=O)c1ccc(N)cc1`, the T/C under setting [1] is 101 % of control, the T/C under setting [2] was 100 % of control and the T/C under setting [3] was 92 % of control.
In the same order, the values of `CN(C)c1ccc(N=C(C#N)C(=O)c2ccccc2)cc1` are 95 % of control, 95 % of control and 102 % of control.
In the case of `CC1=CCC(=C(C)C)C1C(=O)NC1CCCCC1` (configuration not stated), the T/C is 97 % of control under setting [4]; 105 % of control (dose: 100.0 mg/kg/injection, schedule: Q01DX009 (ip), vehicle: propolene glycol); 109 % of control (dose: 200.0 mg/kg/injection, schedule: Q01DX009 (ip), vehicle: propolene glycol); 100 % of control under setting [5]; 106 % of control (dose: 400.0 mg/kg/injection, schedule: Q01DX009 (ip), vehicle: propolene glycol).
Turning to `CC(C)O[Si](C)(C)CCl`, the T/C is, setting by setting: (dose: 50.0 mg/kg/injection, schedule: Q01DX001 (ip), vehicle: carboxymethylcellulose (CMC)) 98 % of control; (dose: 100.0 mg/kg/injection, schedule: Q01DX001 (ip), vehicle: carboxymethylcellulose (CMC)) 86 % of control; (dose: 200.0 mg/kg/injection, schedule: Q01DX001 (ip), vehicle: carboxymethylcellulose (CMC)) 90 % of control; (dose: 400.0 mg/kg/injection, schedule: Q01DX001 (ip), vehicle: carboxymethylcellulose (CMC)) 92 % of control.
In the case of `CCCNC(=O)C1C2CC3OC(=O)C1C3C2` (configuration not stated), the T/C is, setting by setting: under setting [1], 90 % of control; under setting [6], 98 % of control; under setting [2], 95 % of control; under setting [7], 91 % of control; under setting [3], 93 % of control; under setting [8], 102 % of control.
`COP(=O)(O)C(C)=O` (tested in a mixture with another compound): the T/C is 96 % of control (dose: 100.0 mg/kg/injection, schedule: Q04DX002 (ip), vehicle: other); 114 % of control (dose: 200.0 mg/kg/injection, schedule: Q04DX002 (ip), vehicle: other); 101 % of control (dose: 400.0 mg/kg/injection, schedule: Q04DX002 (ip), vehicle: other).
For `C=CCc1c(O)c(OC)cc2c1C(=O)CCCC2`, the T/C reads like this: under setting [9], 93 % of control; under setting [10], 93 % of control; under setting [11], 93 % of control.
`COC(=O)NS(=O)(=O)/C=C\n1c2ccccc2c2ccccc21`: the T/C (dose: 75.0 mg/kg/injection, schedule: Q01DX009 (ip), vehicle: Klucel (hydroxypropylcellulose) (HPC)) is 98 % of control and the T/C (dose: 150.0 mg/kg/injection, schedule: Q01DX009 (ip), vehicle: Klucel (hydroxypropylcellulose) (HPC)) was 109 % of control.
For `CC(=O)SCC(C)SC(C)=O` (configuration not stated), the T/C is 93 % of control (dose: 12.5 mg/kg/injection, schedule: Q04DX002 (ip), vehicle: saline with Tween-80); 98 % of control (dose: 25.0 mg/kg/injection, schedule: Q04DX002 (ip), vehicle: saline with Tween-80); 93 % of control (dose: 50.0 mg/kg/injection, schedule: Q04DX002 (ip), vehicle: saline with Tween-80).
For the molecule `CCOC(=O)C(O)C(Cl)(c1ccccc1)C(C)C` (configuration not stated), the T/C (dose: 100.0 mg/kg/injection, schedule: Q04DX002 (ip), vehicle: saline) is 100 % of control; the T/C (dose: 200.0 mg/kg/injection, schedule: Q04DX002 (ip), vehicle: saline) was 114 % of control; the T/C (dose: 400.0 mg/kg/injection, schedule: Q04DX002 (ip), vehicle: saline) was 111 % of control.
Consider `CCCCCCCCC(=O)CCCCC`, for which the T/C under setting [12] is 92 % of control; the T/C under setting [6] is 101 % of control; the T/C under setting [13] was 94 % of control; the T/C under setting [7] is 105 % of control; the T/C under setting [8] is 100 % of control.
For `CC(=O)Nc1ccc(P(=O)(O)O)cc1[N+](=O)[O-]`, the T/C runs as follows: under setting [6], 91 % of control; under setting [7], 102 % of control; under setting [8], 115 % of control.
For the molecule `O=[N+]([O-])c1cc(C(F)(F)F)cc([N+](=O)[O-])c1NN=C1CCCCC1`, the T/C (dose: 100.0 mg/kg/injection, schedule: Q01DX009 (ip), vehicle: gum acacia) was 93 % of control; the T/C (dose: 200.0 mg/kg/injection, schedule: Q01DX009 (ip), vehicle: gum acacia) is 91 % of control; the T/C (dose: 400.0 mg/kg/injection, schedule: Q01DX009 (ip), vehicle: gum acacia) was 96 % of control.
`Cc1cc2c([N+](=O)[O-])c3cccnn3c2nn1`: the T/C by setting is: (dose: 50.0 mg/kg/injection, schedule: Q04DX002 (ip), vehicle: Klucel (hydroxypropylcellulose) (HPC)) 114 % of control; (dose: 100.0 mg/kg/injection, schedule: Q04DX002 (ip), vehicle: Klucel (hydroxypropylcellulose) (HPC)) 111 % of control; (dose: 200.0 mg/kg/injection, schedule: Q04DX002 (ip), vehicle: Klucel (hydroxypropylcellulose) (HPC)) 91 % of control.
In the case of `c1cc(B2OCCNCCO2)ccc1B1OCCNCCO1`, the T/C under setting [14] was 103 % of control, the T/C under setting [15] is 98 % of control and the T/C under setting [16] is 104 % of control.
In the case of `Cc1[nH]c(=O)[nH]c(=O)c1CCS`, the T/C reads like this: under setting [4], 94 % of control; (dose: 200.0 mg/kg/injection, schedule: Q01DX001 (ip), vehicle: saline) 95 % of control; under setting [5], 101 % of control.
`O=C(Nc1ccc(NC(=O)Nc2ccc(C3=NCCCN3)cc2)cc1)Nc1ccc(C2=NCCCN2)cc1`: the T/C (dose: 8.3 mg/kg/injection, schedule: Q04DX003 (ip), vehicle: saline with Tween-80) is 107 % of control; the T/C (dose: 12.0 mg/kg/injection, schedule: Q04DX003 (ip), vehicle: saline with Tween-80) was 121 % of control; the T/C under setting [4] was 124 % of control; the T/C under setting [7] is 159 % of control; the T/C (dose: 264.0 mg/kg/injection, schedule: Q01DX001 (ip), vehicle: saline) was 208 % of control; the T/C under setting [8] was 279 % of control.
For the molecule `CCCCC1=C(c2ccccc2)C(=O)OC1=O`, the T/C was 95 % of control under setting [17]; 88 % of control under setting [14]; 95 % of control under setting [18]; 98 % of control under setting [15]; 100 % of control under setting [19]; 89 % of control under setting [16].
Consider `O=[N+]([O-])c1ccccc1NC1c2ccccc2Oc2ccccc21`, for which the T/C is, setting by setting: under setting [14], 96 % of control; under setting [15], 93 % of control; under setting [16], 93 % of control.
Consider `CCC[N+]12CC=C3COC(=O)C(C)(O)C(C)(O)C(C)C(=O)OC(CC1)C32` (configuration not stated), for which the T/C by setting is: (dose: 50.0 mg/kg/injection, schedule: Q01DX009 (ip), vehicle: saline) 92 % of control; under setting [12], 95 % of control; under setting [13], 95 % of control.
In the case of `Oc1ccc(Cl)c2c1CCC2`, the T/C was 110 % of control under setting [9]; 102 % of control under setting [10]; 101 % of control under setting [1]; 104 % of control under setting [11]; 101 % of control under setting [2].
On to `c1ccc(N=Nc2ccc(NC3=NCCO3)cc2)cc1`, for which the T/C under setting [14] was 95 % of control and the T/C under setting [15] is 98 % of control.
As to `c1ccc(CN=C(c2ccccc2)c2ccccc2)cc1`, the T/C is 101 % of control under setting [17]; 104 % of control under setting [14]; 95 % of control under setting [18]; 96 % of control under setting [15]; 106 % of control under setting [19]; 98 % of control under setting [16].
Take `Cc1c([N+](=O)[O-])cc(C(C)(C)C)c(OC(=O)Nc2ccc(Cl)cc2)c1[N+](=O)[O-]`: the T/C is, setting by setting: under setting [14], 95 % of control; under setting [15], 92 % of control.

The values above are taken from PubChem BioAssay AID248 (DTP/NCI, 2004).
